# Test results taken from patent publication US10993957B2 (NuCana plc, priority 2011, dated 2021).
# Like-named read-outs stand apart in the source and are kept apart here.
# Columns and labels:
# Cem/0 = assay: Cytostatic assay, CEM/0 cells; assay type: cell-based, human; settings: for CC50: read-out: CC50 Cem/0; for IC50: read-out: IC50 Cem/0
# Text: (§1) The cell lines employed were L1210/0 (a leukemia cell line), FM3A/0 (a breast cancer cell line), Cem/0 (an acute lymphoblastic leukemia cell line) and HeLa (a cervical cell line).
# HeLa = assay: Cytostatic assay, HeLa cells; assay type: cell-based; settings: for CC50: read-out: CC50 HeLa; for IC50: read-out: IC50 HeLa
# Text: as §1
# L1210/0 = assay: Cytostatic assay, L1210/0 cells; assay type: cell-based, murine
# Text: as §1
# HeLa/TK^− = assay: Cytostatic assay, HeLa/TK^− cells; assay type: cell-based; settings: for CC50: read-out: CC50 HeLa/TK^−; for IC50: read-out: IC50 HeLa/TK^−
# Text: as §1
# Cem/TK^− = assay: Cytostatic assay, thymidine kinase-deficient CEM/TK^− cells; assay type: cell-based, human; settings: for CC50: read-out: CC50 Cem/TK^−; for IC50: read-out: IC50 Cem/TK^−
# L1210/TK^− = assay: Cytostatic assay, thymidine kinase-deficient L1210/TK^− cells; assay type: cell-based, murine
# L1210.Hyor = assay: Cytostatic assay, Mycoplasma hyorhinis-infected L1210 cells; settings: for % Retention: CC50 L1210 × 100 ÷ CC50 L1210/Hyor
# Text: Murine leukaemia L1210/0 and human T-lymphocyte CEM/0 cells were obtained from the American Type Culture Collection (ATCC) (Rockville, Md.). Human glioblastoma U87 cells were kindly provided by Dr. E. Menue (Institut Pasteur, Paris, France). […] S. Eriksson (currently at Uppsala University, Uppsala, Sweden) and Prof A. Karlsson (Karolinska Institute, Stockholm, Sweden). […] All cells were maintained in Dulbecco's modified Eagle's medium (DMEM) (Invitrogen, Carlsbad, Calif.) with 10% foetal bovine serum (FBS) (Biochrom AG, Berlin, Germany), 10 mM Hepes and 1 mM Sodium Pyruvate (Invitrogen). Cells were grown at 37° C. in a humidified incubator with a gas phase of 5% CO2.
# Monolayer cells (U87 and U87.Hyor) were seeded in 48-well microtiter plates (Nunc™, Roskilde, Denmark) at 10,000 cells/well. After 24 hours, an equal volume of fresh medium containing the test compounds was added. On day 5, cells were trypsinized and counted in a Coulter counter (Analis, Suarlée, Belgium). Suspension cells (L1210/0, L1210/TK^−, L1210.Hyor, CEM/0, CEM/TK^−) were seeded in 96-well microtiter plates (Nunc™) at 60,000 cells/well in the presence of a given amount of the test compounds. The cells were allowed to proliferate for 48 h (L1210) or 72 hours (CEM) and were then counted in a Coulter counter.
# Samples were also assayed for their % retention of activity in mycoplasma infected cells.
# The L1210/0 cell cultures were infected with the mycoplasma species M. hyorhinis (cells designated: L1210.Hyor).
# [1] = Homo sapiens, CCRF-CEM, Table 1
# [2] = Mus musculus, L1210/0, Table 1, read-out: CC50 L1210/0
# [3] = Homo sapiens, CEM-TK(-), Table 1
# [4] = Mus musculus, L1210, Table 1, read-out: CC50 L1210/TK^−
# [5] = read-out: IC50 L1210.Hyor, Table 7
# [6] = Table 6, read-out: IC50 L1210/0
# [7] = Table 7, read-out: IC50 L1210/0
# [8] = Table 6, read-out: IC50 L1210/TK^−
# [9] = Mus musculus, L1210, read-out: CC50 L1210/Hyor
# [10] = Mus musculus, L1210, read-out: IC50 L1210.Hyor
# [11] = Homo sapiens, CCRF-CEM, Table 6
# [12] = Mus musculus, L1210/0, Table 2, mycoplasma negative cells, read-out: CC50 L1210
# [13] = Mus musculus, L1210/0, Table 6, read-out: IC50 L1210/0
# [14] = Mus musculus, L1210/0, Table 7, read-out: IC50 L1210/0
# [15] = Homo sapiens, CEM-TK(-), Table 6
# [16] = Mus musculus, L1210, Table 6, read-out: IC50 L1210/TK^−
Compound,CC50 (Cem/0; [1]) [nM],"CC50 (HeLa; Homo sapiens, HeLa, Table 1) [nM]",CC50 (L1210/0; [2]) [nM],"CC50 (HeLa/TK^−; Homo sapiens, HeLa, Table 1) [nM]",CC50 (Cem/TK^−; [3]) [nM],CC50 (L1210/TK^−; [4]) [nM],IC50(L1210.Hyor)/IC50(L1210/0) (L1210.Hyor; Table 7),% Retention (L1210.Hyor) [%],CC50 (L1210.Hyor; [9]) [nM],IC50 (L1210.Hyor; [10]) [nM],IC50 (Cem/0; [11]) [nM],"IC50 (HeLa; Homo sapiens, HeLa, Table 6) [nM]",CC50 (L1210/0; [12]) [nM],IC50 (L1210/0; [13]) [nM],IC50 (L1210/0; [14]) [nM],"IC50 (HeLa/TK^−; Homo sapiens, HeLa, Table 6) [nM]",IC50 (Cem/TK^−; [15]) [nM],IC50 (L1210/TK^−; [16]) [nM],also measured
"CC(C)OC(=O)[C@H](C)NP(=O)(O)OCC1OC(n2cc(F)c(=O)[nH]c2=O)CC1O (stereo partly drawn) [CPF 438, reference compound]",2100 ± 600,3700 ± 500,120 ± 20,72000,32000 ± 2000,51000 ± 9000,,,,,,,,,,,,,
"C[C@H](NP(=O)(OC[C@H]1O[C@@H](n2cc(F)c(=O)[nH]c2=O)C[C@@H]1O)Oc1ccccc1)C(=O)OC1CCCCC1 (stereo partly drawn) [CPF 508, 5-Fluoro-2′deoxyuridine-5′-O-[phenyl (cyclohexoxy-L-alaninyl)] phosphate]",,,,,,,1.25,,,,,,,,,,,,IC50 (L1210.Hyor; [5]): 40 ± 16 nM; IC50 (Cem/0; Table 6): 170 ± 70 nM; IC50 (HeLa; Table 6): 180 ± 50 nM; IC50 (L1210/0; [6]): 39 ± 1 nM; IC50 (L1210/0; [7]): 32 ± 5 nM; IC50 (HeLa/TK^−; Table 6): 5900 ± 400 nM; IC50 (Cem/TK^−; Table 6): 1200 ± 10 nM; IC50 (L1210/TK^−; [8]): 140 ± 20 nM
CC(C)C(NP(=O)(OCC1OC(n2cc(F)c(=O)[nH]c2=O)CC1O)Oc1cccc2ccccc12)C(=O)OC1CCCCC1 (stereo not drawn) [CPF 576],,,,,,,1.08,51,,,,,,,,,,,"CC50 (L1210.Hyor; read-out: CC50 L1210/Hyor, Table 2, mycoplasma positive cells): 2730 nM; IC50 (L1210.Hyor; [5]): 1290 ± 290 nM; IC50 (Cem/0; Table 6): 800 ± 280 nM; IC50 (HeLa; Table 6): 670 ± 30 nM; CC50 (L1210/0; Table 2, mycoplasma negative cells, read-out: CC50 L1210): 1400 nM; IC50 (L1210/0; [6]): 1100 ± 500 nM; IC50 (L1210/0; [7]): 1200 ± 170 nM; IC50 (HeLa/TK^−; Table 6): 27000 ± 6000 nM; IC50 (Cem/TK^−; Table 6): 46000 ± 14000 nM; IC50 (L1210/TK^−; [8]): 35000 ± 8000 nM"
"O=C(OCc1ccccc1)C1CCCN1P(=O)(OC[C@H]1O[C@@H](n2cc(F)c(=O)[nH]c2=O)CC1O)Oc1cccc2ccccc12 (stereo partly drawn) [CPF 577, 5-Fluoro-2′-deoxyuridine-5′-O-[1-naphthyl(benzoxy-L-prolinyl)] phosphate]",,,,,,,2.5,36,630,650 ± 70,,,,,,,,,"CC50 (Cem/0; Homo sapiens, CCRF-CEM): 890 ± 350 nM; IC50 (Cem/0; Homo sapiens, CCRF-CEM): 890 ± 350 nM; CC50 (HeLa; Homo sapiens, HeLa): 1200 nM; IC50 (HeLa; Homo sapiens, HeLa): 1200 nM; CC50 (L1210/0; Mus musculus, L1210/0, read-out: CC50 L1210): 230 nM; CC50 (L1210/0; Mus musculus, L1210/0, read-out: CC50 L1210/0): 210 ± 80 nM; IC50 (L1210/0; Mus musculus, L1210/0, read-out: IC50 L1210/0, Table 6): 210 ± 80 nM; IC50 (L1210/0; Mus musculus, L1210/0, read-out: IC50 L1210/0, Table 7): 260 ± 55 nM; CC50 (HeLa/TK^−; Homo sapiens, HeLa): 26000 ± 1000 nM; IC50 (HeLa/TK^−; Homo sapiens, HeLa): 26000 ± 1000 nM; CC50 (Cem/TK^−; Homo sapiens, CEM-TK(-)): 32000 ± 9000 nM; IC50 (Cem/TK^−; Homo sapiens, CEM-TK(-)): 35000 ± 9000 nM; CC50 (L1210/TK^−; Mus musculus, L1210, read-out: CC50 L1210/TK^−): 25000 ± 8000 nM; IC50 (L1210/TK^−; Mus musculus, L1210, read-out: IC50 L1210/TK^−): 25000 ± 8000 nM"
"C[C@H](NP(=O)(OC[C@H]1O[C@@H](n2cc(F)c(=O)[nH]c2=O)CC1O)Oc1cccc2ccccc12)C(=O)OC1CCC1 (stereo partly drawn) [CPF 578, 5-Fluoro-2′-deoxyuridine-5′-O-[1-naphthyl-(cyclobutoxy-L-alaninyl)]phosphate]",73 ± 18,69 ± 3,14 ± 3,1500 ± 600,1500 ± 300,88 ± 38,2.2,31,48,24 ± 0.14,73 ± 18,69 ± 3,15,14 ± 3,11 ± 1.4,1500 ± 600,1500 ± 300,88 ± 38,
"C[C@H](NP(=O)(OC[C@H]1O[C@@H](n2cc(F)c(=O)[nH]c2=O)CC1O)Oc1cccc2ccccc12)C(=O)OCC1CC1 (stereo partly drawn) [CPF 579, 5-Fluoro-2′-deoxyuridine-5′-O-[1-naphthyl-(cyclopropylmethanoxy-L-alaninyl)] phosphate]",59 ± 17,68 ± 1,17 ± 7,1400 ± 400,1100 ± 200,120 ± 60,2.2,42,45,31 ± 6.4,59 ± 17,68 ± 1,19,17 ± 7,14 ± 4.2,1400 ± 400,1100 ± 200,120 ± 60,
"C[C@H](NP(=O)(OC[C@H]1O[C@@H](n2cc(F)c(=O)[nH]c2=O)CC1O)Oc1cccc2ccccc12)C(=O)OC1CCOCC1 (stereo partly drawn) [CPF 580, 5-Fluoro-2′-deoxyuridine-5′-O-[1-naphthyl-(tetrahydropyroxy-L-alaninyl)]phosphate]",110 ± 20,130 ± 40,38 ± 14,15000 ± 7000,43000 ± 12000,27000 ± 6000,11.7,12,410,480 ± 110,110 ± 20,130 ± 40,48,38 ± 14,41 ± 2.8,15000 ± 7000,43000 ± 12000,27000 ± 6000,
